Test results taken from paper PMC3486838 (PLoS ONE, 2012).
Where two headings read alike, the source gives them in different places.

Key:
human CYP11B2 = target: T1, human CYP11B2 (Homo sapiens, UniProt P19099); test: Inhibition of CYP11B2 in V79 MZh cells expressing the enzyme; type: cell-based; details: for IC50: substrate deoxycorticosterone, 100 nM; for SF: selectivity factor = IC50 CYP11B1/IC50 CYP11B2: CYP11B2 over CYP11B1
T1 construct: expressed in transfected cells; host or cells: V79MZh cells
T1 sequence (P19099 25-503): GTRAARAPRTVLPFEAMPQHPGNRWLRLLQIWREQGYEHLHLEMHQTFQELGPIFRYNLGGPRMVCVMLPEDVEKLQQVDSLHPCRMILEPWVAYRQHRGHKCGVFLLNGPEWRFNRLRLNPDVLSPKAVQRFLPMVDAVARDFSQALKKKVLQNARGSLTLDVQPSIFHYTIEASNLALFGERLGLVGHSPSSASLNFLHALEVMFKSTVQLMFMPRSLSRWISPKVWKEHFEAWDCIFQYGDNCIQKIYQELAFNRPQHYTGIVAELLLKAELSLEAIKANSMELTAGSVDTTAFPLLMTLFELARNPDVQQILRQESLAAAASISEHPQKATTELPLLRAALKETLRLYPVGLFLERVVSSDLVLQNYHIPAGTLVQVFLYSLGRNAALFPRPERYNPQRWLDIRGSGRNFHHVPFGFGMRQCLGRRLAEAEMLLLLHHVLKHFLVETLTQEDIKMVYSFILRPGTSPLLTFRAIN
Description: (§1) V79MZh cells expressing human CYP11B1 [45] or CYP11B2 [44] were incubated with [^14C]-11-deoxycorticosterone as substrate. The assay was performed as previously described.

human CYP11B1 = target: T2, human CYP11B1 (Homo sapiens, UniProt P15538); test: Inhibition of CYP11B1 in V79 MZh cells expressing the enzyme; type: cell-based
T2 construct: expressed in transfected cells; host or cells: V79MZh cells
T2 sequence (P15538 25-503): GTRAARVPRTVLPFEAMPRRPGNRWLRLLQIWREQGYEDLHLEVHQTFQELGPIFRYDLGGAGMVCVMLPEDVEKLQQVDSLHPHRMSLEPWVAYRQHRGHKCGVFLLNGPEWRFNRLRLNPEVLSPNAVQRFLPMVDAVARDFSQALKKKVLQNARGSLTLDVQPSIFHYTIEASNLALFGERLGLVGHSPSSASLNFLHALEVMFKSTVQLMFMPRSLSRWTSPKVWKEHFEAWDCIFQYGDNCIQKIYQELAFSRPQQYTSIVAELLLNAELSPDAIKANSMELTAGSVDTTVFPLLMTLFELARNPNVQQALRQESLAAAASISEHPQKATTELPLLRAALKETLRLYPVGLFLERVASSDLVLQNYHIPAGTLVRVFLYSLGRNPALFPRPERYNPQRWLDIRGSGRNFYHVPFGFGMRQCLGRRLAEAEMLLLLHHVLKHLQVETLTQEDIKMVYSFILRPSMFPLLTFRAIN
Description: as §1

[1] = target: T3, human hepatic enzyme CYP1A2 (Homo sapiens, UniProt P05177); test: Inhibition of human hepatic CYP1A2, recombinant enzyme (Supersomes); type: biochemical
T3 sequence (P05177 1-516): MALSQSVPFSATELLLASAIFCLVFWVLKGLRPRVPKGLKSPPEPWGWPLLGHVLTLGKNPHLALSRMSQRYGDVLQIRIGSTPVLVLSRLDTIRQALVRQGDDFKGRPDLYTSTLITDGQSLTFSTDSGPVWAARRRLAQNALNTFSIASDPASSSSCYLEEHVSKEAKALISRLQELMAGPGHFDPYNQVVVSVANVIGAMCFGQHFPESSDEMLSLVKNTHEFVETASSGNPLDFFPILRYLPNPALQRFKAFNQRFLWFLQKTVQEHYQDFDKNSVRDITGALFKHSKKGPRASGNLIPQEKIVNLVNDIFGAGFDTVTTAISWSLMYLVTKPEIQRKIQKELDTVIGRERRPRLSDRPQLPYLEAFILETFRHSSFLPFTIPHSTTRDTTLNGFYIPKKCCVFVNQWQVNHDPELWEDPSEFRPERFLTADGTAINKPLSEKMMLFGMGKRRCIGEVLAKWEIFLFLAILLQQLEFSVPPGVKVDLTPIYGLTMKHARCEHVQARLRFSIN

[2] = Hamster fibroblasts (V79 MZh) expressing human CYP11B2, read-out: 11B2 IC50
[3] = Hamster fibroblasts (V79 MZh) expressing human CYP11B1, substrate deoxycorticosterone, 100 nM, read-out: 11B1 IC50
[4] = recombinantly expressed enzyme from baculovirus infected insect microsomes (Supersomes)

Compound	IC50 (human CYP11B2; [2])	IC50 (human CYP11B1; [3])	SF: selectivity factor = IC50 CYP11B1/IC50 CYP11B2 (human CYP11B2)	IC50 ([1]; recombinant CYP1A2)	IC50 [1, 4]	IC50 (human CYP11B2; 11B2 IC50, Hamster fibroblasts (V79 MZh) expressing human CYP11B2)	IC50 (human CYP11B1)	CYP1A2 inhibition at 2 µM [1]	melting point
O=C1CC2CC(c3cccnc3)CC2C1 (stereo not drawn) [Compound 3, 5-Pyridin-3-yl-hexahydro-pentalen-2-one]	258 ± 22 nM	306 ± 25 nM	–	–	–	–	–	–	–
C1=C(c2cccnc2)C2CCC1C2 (stereo not drawn) [Compound 18, 3-Bicyclo[2.2.1]hept-2-en-2-yl-pyridine]	889 ± 57 nM	2130 ± 113 nM	3	–	–	–	–	–	–
c1cncc(C2CC3CCC2C3)c1 (stereo not drawn) [Compound 19, (endo/exo)-3-Bicyclo[2.2.1]hept-2-yl-pyridine]	99 ± 21 nM	137 ± 12 nM	–	44000 nM	44430 ± 388 nM	–	–	–	–
C=C1CC2C=C(c3cccnc3)CC2C1 (stereo not drawn) [Compound 4, 3-(5-Methylidene-1,3a,4,5,6,6a-hexahydro-pentalen-2-yl)-pyridine]	6 ± 2 nM	205 ± 12 nM	34	–	2170 ± 97 nM	–	–	–	–
c1cncc(C2CCCCCCCCCCC2)c1 [Compound 16, 3-Cyclododecyl-pyridine]	636 ± 32 nM	1770 ± 56 nM	3	–	–	–	–	–	–
O=C1CCCC(c2cccnc2)CCC1 [Compound 8, 5-Pyridin-3-yl-cyclooctanone]	443 ± 36 nM	1350 ± 79 nM	3	–	–	–	–	–	–
OC1CCCC(c2cccnc2)CCC1 (stereo not drawn) [Compound 10, (endo/exo)-5-Pyridin-3-yl-cyclooctanol]	294 ± 23 nM	246 ± 36 nM	–	–	–	–	–	–	–
c1cncc(C2CCCCCCCCC2)c1 [Compound 14, 3-Cyclodecyl-pyridine]	22 ± 2 nM	872 ± 79 nM	40	–	> 100000 nM	–	–	–	–
CN1C2CCC1CC(c1cccnc1)C2 (stereo not drawn) [Compound 21, (endo/exo)-8-Methyl-3-pyridin-3-yl-8-aza-bicyclo[3.2.1]octane]	–	–	–	–	–	2830 ± 135 nM	> 10000 nM	–	–
COc1ccc2cc(-c3cccnc3)ccc2c1 [I, reference compound]	–	–	–	–	41 ± 5 nM	–	–	–	–
CN1C2C=C(c3cccnc3)CC1CC2 (stereo not drawn) [Compound 20, 8-Methyl-3-pyridin-3-yl-8-aza-bicyclo[3.2.1]oct-2-ene]	2440 ± 88 nM	> 5000 nM	–	–	–	–	–	–	–
C1=C(c2cccnc2)CCCCCCCC1 [Compound 13, 3-Cyclodec-1-enyl-pyridine]	21 ± 3 nM	258 ± 16 nM	12	–	> 100000 nM	–	–	no inhibition	–
O=C1CC2C=C(c3cccnc3)CC2C1 (stereo not drawn) [Compound 2, 5-Pyridin-3-yl-3,3a,4,6a-tetrahydro-1H-pentalen-2-one]	34 ± 5 nM	282 ± 17 nM	8	–	> 100000 nM	–	–	no inhibition	–
O=C1CCC=C(c2cccnc2)CCC1 [Compound 7, 5-Pyridin-3-yl-cyclooct-4-enone]	205 ± 16 nM	851 ± 58 nM	4	–	–	–	–	–	–
C1=C(c2cccnc2)CCCCCC1 [Compound 11, 3-Cyclooct-1-enyl-pyridine]	81 ± 7 nM	195 ± 15 nM	2	–	> 100000 nM	–	–	–	–
COc1ccc2c(c1)CC(C)C(c1cccnc1)=C2 (stereo not drawn) [III, reference compound]	3 ± 1 nM	248 ± 19 nM	79	–	741 ± 55 nM	–	–	–	–
CC12CCC(c3cccnc3)=CC1=CCCC2=O (racemic) [Compound 17, (±)-8a-Methyl-6-pyridin-3-yl-3,7,8,8a-tetrahydro-2H-naphthalen-1-one]	462 ± 36 nM	1020 ± 78 nM	2	–	–	–	–	–	–
c1cncc(C2CCCCCCC2)c1 [Compound 12, 3-Cyclooctyl-pyridine]	21 ± 5 nM	1050 ± 67 nM	50	–	> 100000 nM	–	–	no inhibition	–
c1cncc(C2CCC3CCCCC3C2)c1 (stereo not drawn) [Compound 1, 3-(Decahydro-naphthalen-2-yl)-pyridine]	157 ± 14 nM	611 ± 34 nM	4	–	–	–	–	–	–
OC1CCC=C(c2cccnc2)CCC1 (stereo not drawn) [Compound 9, 5-Pyridin-3-yl-cyclooct-4-enol]	141 ± 11 nM	348 ± 25 nM	2	–	–	–	–	–	–
OC1CC2CC(c3cccnc3)CC2C1 (stereo not drawn) [Compound 6, 5-Pyridin-3-yl-octahydro-pentalen-2-ol]	347 ± 35 nM	133 ± 29 nM	0.4	–	–	–	–	–	–
OC1CC2C=C(c3cccnc3)CC2C1 (stereo not drawn) [Compound 5, 5-Pyridin-3-yl-1,2,3,3a,4,6a-hexahydro-pentalen-2-ol]	225 ± 21 nM	663 ± 27 nM	3	–	–	–	–	–	110 to 112 °C
C1=C(c2cccnc2)CCCCCCCCCC1 [Compound 15, 3-Cyclododec-1-enyl-pyridine]	1170 ± 97 nM	> 10000 nM	–	–	–	–	–	–	–
COC1CCc2cc(-c3cccnc3)ccc2C1 (stereo not drawn) [II, reference compound]	3 ± 1 nM	1140 ± 78 nM	347	–	440 ± 11 nM	–	–	–	–
